Measurements taken from PubChem BioAssay AID1918943 (Molecular Pharmacology Branch, DTP, NCI, 2023).

System: 855422-203-R-J1-PDC complex spheroid viability
Test: Anticancer human tumor 855422-203-R-J1-PDC patient-derived bladder carcinoma cell line growth inhibition
Conditions: for IC50: curve of first compound; for viability, T/C: stronger effect = lower value
Outline: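 Multicellular complex spheroids of tumor cells with human endothelial cells (HUVEC) and mesenchymal stem cells; the LSD1 inhibitor iadademstat was combined with standard-of-care or investigational agents. Top concentration at or near clinical Cmax, half-log dilutions; final DMSO ≤0.25%.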

[1] = second compound 0.1 µM, first compound 0.0316 µM
[2] = second compound 0.1 µM, first compound 0.1 µM
[3] = second compound 0.1 µM, first compound 0.316 µM
[4] = second compound 0.1 µM, first compound 1 µM
[5] = second compound 0.316 µM, first compound 0.0316 µM
[6] = second compound 0.316 µM, first compound 0.1 µM
[7] = second compound 0.316 µM, first compound 0.316 µM
[8] = second compound 0.316 µM, first compound 1 µM
[9] = second compound 1 µM, first compound 0.0316 µM
[10] = second compound 1 µM, first compound 0.1 µM
[11] = second compound 1 µM, first compound 0.316 µM
[12] = second compound 1 µM, first compound 1 µM
[13] = second compound 3.16 µM, first compound 0.0316 µM
[14] = second compound 3.16 µM, first compound 0.1 µM
[15] = second compound 3.16 µM, first compound 0.316 µM
[16] = second compound 3.16 µM, first compound 1 µM
[17] = second compound 10 µM, first compound 0.0316 µM
[18] = second compound 10 µM, first compound 0.1 µM
[19] = second compound 10 µM, first compound 0.316 µM
[20] = second compound 10 µM, first compound 1 µM
[21] = second compound 0.1 µM, first compound 0.00949 µM
[22] = second compound 0.1 µM, first compound 0.03 µM
[23] = second compound 0.1 µM, first compound 0.0949 µM
[24] = second compound 0.1 µM, first compound 0.3 µM
[25] = second compound 0.316 µM, first compound 0.00949 µM
[26] = second compound 0.316 µM, first compound 0.03 µM
[27] = second compound 0.316 µM, first compound 0.0949 µM
[28] = second compound 0.316 µM, first compound 0.3 µM
[29] = second compound 1 µM, first compound 0.00949 µM
[30] = second compound 1 µM, first compound 0.03 µM
[31] = second compound 1 µM, first compound 0.0949 µM
[32] = second compound 1 µM, first compound 0.3 µM
[33] = second compound 3.16 µM, first compound 0.00949 µM
[34] = second compound 3.16 µM, first compound 0.03 µM
[35] = second compound 3.16 µM, first compound 0.0949 µM
[36] = second compound 3.16 µM, first compound 0.3 µM
[37] = second compound 10 µM, first compound 0.00949 µM
[38] = second compound 10 µM, first compound 0.03 µM
[39] = second compound 10 µM, first compound 0.0949 µM
[40] = second compound 10 µM, first compound 0.3 µM
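Note: drug exposure lasted 7 days starting on day 3 after seeding.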
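Throughout, for viability, T/C: luminescence viability as percent of DMSO vehicle wells = 100%.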

O=C(C=Cn1cnc(-c2cc(C(F)(F)F)cc(C(F)(F)F)c2)n1)NNc1cnccn1 + NC1CC1c1ccc(-c2cccc(O)c2)cc1
IC50 (second compound 0.1 µM): 27.8 nM
IC50 (second compound 0.316 µM): 25.3 nM
IC50 (second compound 1 µM): 23.9 nM
IC50 (second compound 3.16 µM): 21.4 nM
IC50 (second compound 10 µM): 23.2 nM
viability, T/C (second compound 0.1 µM, first compound 0.00316 µM): 133%
viability, T/C (second compound 0.1 µM, first compound 0.01 µM): 75.4%
viability, T/C [1]: 44.4%
viability, T/C [2]: 35.1%
viability, T/C [3]: 27.6%
viability, T/C [4]: 16.2%
viability, T/C (second compound 0.316 µM, first compound 0.00316 µM): 121%
viability, T/C (second compound 0.316 µM, first compound 0.01 µM): 75%
viability, T/C [5]: 40.5%
viability, T/C [6]: 32.6%
viability, T/C [7]: 28.2%
viability, T/C [8]: 17.7%
viability, T/C (second compound 1 µM, first compound 0.00316 µM): 121%
viability, T/C (second compound 1 µM, first compound 0.01 µM): 71.1%
viability, T/C [9]: 38.9%
viability, T/C [10]: 34.8%
viability, T/C [11]: 29.3%
viability, T/C [12]: 16.8%
viability, T/C (second compound 3.16 µM, first compound 0.00316 µM): 112%
viability, T/C (second compound 3.16 µM, first compound 0.01 µM): 68.3%
viability, T/C [13]: 36.8%
viability, T/C [14]: 33.5%
viability, T/C [15]: 26.6%
viability, T/C [16]: 18.9%
viability, T/C (second compound 10 µM, first compound 0.00316 µM): 97.8%
viability, T/C (second compound 10 µM, first compound 0.01 µM): 70.3%
viability, T/C [17]: 39.7%
viability, T/C [18]: 33.3%
viability, T/C [19]: 31%
viability, T/C [20]: 20.1%

Nc1ncn(C2CC(O)C(CO)S2)c(=O)n1 (stereo not given) + NC1CC1c1ccc(-c2cccc(O)c2)cc1
IC50 (second compound 0.1 µM): > 300 nM
IC50 (second compound 0.316 µM): > 300 nM
IC50 (second compound 1 µM): > 300 nM
IC50 (second compound 3.16 µM): > 300 nM
IC50 (second compound 10 µM): > 300 nM
viability, T/C (second compound 0.1 µM, first compound 0.000949 µM): 94.4%
viability, T/C (second compound 0.1 µM, first compound 0.003 µM): 95.2%
viability, T/C [21]: 92.8%
viability, T/C [22]: 105%
viability, T/C [23]: 93.2%
viability, T/C [24]: 83.5%
viability, T/C (second compound 0.316 µM, first compound 0.000949 µM): 87.7%
viability, T/C (second compound 0.316 µM, first compound 0.003 µM): 91.2%
viability, T/C [25]: 92.3%
viability, T/C [26]: 103%
viability, T/C [27]: 97.5%
viability, T/C [28]: 77.9%
viability, T/C (second compound 1 µM, first compound 0.000949 µM): 87.3%
viability, T/C (second compound 1 µM, first compound 0.003 µM): 88.6%
viability, T/C [29]: 93.5%
viability, T/C [30]: 99.2%
viability, T/C [31]: 95.4%
viability, T/C [32]: 73.1%
viability, T/C (second compound 3.16 µM, first compound 0.000949 µM): 81.9%
viability, T/C (second compound 3.16 µM, first compound 0.003 µM): 84.9%
viability, T/C [33]: 91.3%
viability, T/C [34]: 93.4%
viability, T/C [35]: 93.7%
viability, T/C [36]: 73.4%
viability, T/C (second compound 10 µM, first compound 0.000949 µM): 85.9%
viability, T/C (second compound 10 µM, first compound 0.003 µM): 83.3%
viability, T/C [37]: 85.6%
viability, T/C [38]: 94.3%
viability, T/C [39]: 84.4%
viability, T/C [40]: 68.8%

CC(C)c1c(-c2ccccc2)nc2c(C#N)c[nH]n2c1=O + NC1CC1c1ccc(-c2cccc(O)c2)cc1
IC50 (second compound 0.1 µM): > 10000 nM
IC50 (second compound 0.316 µM): > 10000 nM
IC50 (second compound 1 µM): > 10000 nM
IC50 (second compound 3.16 µM): > 10000 nM
IC50 (second compound 10 µM): > 10000 nM
viability, T/C [1]: 96.8%
viability, T/C [2]: 109%
viability, T/C [3]: 93.8%
viability, T/C [4]: 95.7%
viability, T/C (second compound 0.1 µM, first compound 3.16 µM): 95.5%
viability, T/C (second compound 0.1 µM, first compound 10 µM): 86.2%
viability, T/C [5]: 98.2%
viability, T/C [6]: 94.7%
viability, T/C [7]: 99.7%
viability, T/C [8]: 87.4%
viability, T/C (second compound 0.316 µM, first compound 3.16 µM): 88%
viability, T/C (second compound 0.316 µM, first compound 10 µM): 83.6%
viability, T/C [9]: 96.5%
viability, T/C [10]: 102%
viability, T/C [11]: 93.6%
viability, T/C [12]: 86.2%
viability, T/C (second compound 1 µM, first compound 3.16 µM): 90.5%
viability, T/C (second compound 1 µM, first compound 10 µM): 80.4%
viability, T/C [13]: 98.8%
viability, T/C [14]: 96%
viability, T/C [15]: 94.2%
viability, T/C [16]: 88.9%
viability, T/C (second compound 3.16 µM, first compound 3.16 µM): 86.1%
viability, T/C (second compound 3.16 µM, first compound 10 µM): 83.7%
viability, T/C [17]: 86.1%
viability, T/C [18]: 86.6%
viability, T/C [19]: 88.7%
viability, T/C [20]: 86.9%
viability, T/C (second compound 10 µM, first compound 3.16 µM): 81.3%
viability, T/C (second compound 10 µM, first compound 10 µM): 73.9%

Nc1ccccc1NC(=O)c1ccc(CNC(=O)OCc2cccnc2)cc1 + NC1CC1c1ccc(-c2cccc(O)c2)cc1
IC50 (second compound 0.1 µM): 1220 nM
IC50 (second compound 0.316 µM): 1300 nM
IC50 (second compound 1 µM): 1070 nM
IC50 (second compound 3.16 µM): 993 nM
IC50 (second compound 10 µM): 1030 nM
viability, T/C [21]: 90.3%
viability, T/C [22]: 91.2%
viability, T/C [23]: 98.5%
viability, T/C [24]: 97.8%
viability, T/C (second compound 0.1 µM, first compound 0.949 µM): 60.8%
viability, T/C (second compound 0.1 µM, first compound 3 µM): 11.8%
viability, T/C [25]: 95.3%
viability, T/C [26]: 92.6%
viability, T/C [27]: 104%
viability, T/C [28]: 96.4%
viability, T/C (second compound 0.316 µM, first compound 0.949 µM): 65.9%
viability, T/C (second compound 0.316 µM, first compound 3 µM): 7.62%
viability, T/C [29]: 89.4%
viability, T/C [30]: 90.4%
viability, T/C [31]: 85.9%
viability, T/C [32]: 82.8%
viability, T/C (second compound 1 µM, first compound 0.949 µM): 54.7%
viability, T/C (second compound 1 µM, first compound 3 µM): 6.8%
viability, T/C [33]: 87.9%
viability, T/C [34]: 86.6%
viability, T/C [35]: 91%
viability, T/C [36]: 90.2%
viability, T/C (second compound 3.16 µM, first compound 0.949 µM): 51.9%
viability, T/C (second compound 3.16 µM, first compound 3 µM): 5.73%
viability, T/C [37]: 98.7%
viability, T/C [38]: 91.3%
viability, T/C [39]: 91.1%
viability, T/C [40]: 87.4%
viability, T/C (second compound 10 µM, first compound 0.949 µM): 53.5%
viability, T/C (second compound 10 µM, first compound 3 µM): 2.03%
